Data taken from PMC3938481, “Molecular Cloning of a Novel Glucuronokinase/Putative Pyrophosphorylase from Zebrafish Acting in an UDP-Glucuronic Acid Salvage Pathway” (PLoS ONE, 2014).

Legend:
Assay in all cases: coupled HPLC assay with pea UDP-sugar pyrophosphorylase
DrGKUP = target: T1, DrGKUP (Danio rerio, UniProt F6NZ60); format: biochemical; settings: UTP, 4 mM MgCl2, 50 mM MOPS-KOH pH 7.5, 35°C
T1 construct: gene gkup; full length, 619 residues, about 70 kDa; StrepII-tag, made in Nicotiana benthamiana leaves
T1 sequence (F6NZ60 1-619): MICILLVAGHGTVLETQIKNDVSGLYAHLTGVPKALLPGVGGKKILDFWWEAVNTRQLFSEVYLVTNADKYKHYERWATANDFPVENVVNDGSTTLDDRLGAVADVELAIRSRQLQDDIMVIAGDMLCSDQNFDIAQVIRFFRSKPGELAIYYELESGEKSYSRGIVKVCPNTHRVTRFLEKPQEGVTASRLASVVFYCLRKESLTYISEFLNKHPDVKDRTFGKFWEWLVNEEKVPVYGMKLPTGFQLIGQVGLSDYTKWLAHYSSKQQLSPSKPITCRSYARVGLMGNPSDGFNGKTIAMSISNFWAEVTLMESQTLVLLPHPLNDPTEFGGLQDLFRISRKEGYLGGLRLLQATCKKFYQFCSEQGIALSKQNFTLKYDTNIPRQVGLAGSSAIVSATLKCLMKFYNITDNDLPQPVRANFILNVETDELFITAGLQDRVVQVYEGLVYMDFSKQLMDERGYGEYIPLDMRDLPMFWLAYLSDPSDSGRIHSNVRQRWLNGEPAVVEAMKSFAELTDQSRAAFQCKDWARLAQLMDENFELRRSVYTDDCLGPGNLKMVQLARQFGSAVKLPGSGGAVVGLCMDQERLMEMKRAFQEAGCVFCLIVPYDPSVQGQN

XtGKUP = target: T2, XtGKUP (Xenopus tropicalis, UniProt A0A6I8PZF0); format: biochemical; settings: ATP, UTP, 4 mM MgCl2, 50 mM MOPS-KOH pH 7.5, 35°C
T2 construct: gene XB5896631; bifunctional enzyme cloned from tadpole first-strand cDNA; StrepII-tag, made in Nicotiana benthamiana leaves
T2 sequence (A0A6I8PZF0 1-619): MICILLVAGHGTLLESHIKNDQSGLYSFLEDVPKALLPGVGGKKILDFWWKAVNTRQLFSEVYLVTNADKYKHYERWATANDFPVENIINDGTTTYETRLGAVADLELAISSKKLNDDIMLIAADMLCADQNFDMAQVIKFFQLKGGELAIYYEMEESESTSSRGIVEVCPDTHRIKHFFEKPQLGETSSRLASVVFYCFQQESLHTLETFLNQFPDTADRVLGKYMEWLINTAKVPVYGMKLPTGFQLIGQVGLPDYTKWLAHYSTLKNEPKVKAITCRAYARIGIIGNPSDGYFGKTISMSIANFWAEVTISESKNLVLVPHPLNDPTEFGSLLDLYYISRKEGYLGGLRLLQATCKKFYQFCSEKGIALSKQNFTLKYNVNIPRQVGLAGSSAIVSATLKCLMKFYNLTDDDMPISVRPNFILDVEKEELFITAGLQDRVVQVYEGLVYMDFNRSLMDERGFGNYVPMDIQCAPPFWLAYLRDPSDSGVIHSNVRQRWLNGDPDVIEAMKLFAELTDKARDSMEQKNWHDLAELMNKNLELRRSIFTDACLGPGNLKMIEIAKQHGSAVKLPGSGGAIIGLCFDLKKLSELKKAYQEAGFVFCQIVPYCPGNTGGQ

[1] = substrate: Nc1ncnc2c1ncn2[C@@H]1O[C@H](COP(=O)(O)OP(=O)(O)OP(=O)(O)O)[C@@H](O)[C@H]1O; format: biochemical, Danio rerio; settings: GlcA and UTP, 4 mM MgCl2, 50 mM MOPS-KOH pH 7.5, 35°C, ATP 0.01-1.4 mM
Excerpt: coupled HPLC assay with pea UDP-sugar pyrophosphorylase on DrGK

For `Nc1ncnc2c1ncn2[C@@H]1O[C@H](COP(=O)(O)OP(=O)(O)OP(=O)(O)O)[C@@H](O)[C@H]1O` [ATP], the “coupled HPLC assay with pea UDP-sugar pyrophosphorylase” value (“coupled HPLC assay” below) (DrGKUP; GlcA) was “The product is dependent on the presence of ATP, UTP and GlcA”.

For `O=C(O)[C@H]1OC(O)[C@H](O)[C@@H](O)[C@@H]1O` (stereo partly drawn) [D-glucuronic acid], the “coupled HPLC assay” value (XtGKUP) was “we can confirm the glucuronokinase activity for the Xenopus enzyme” and the “coupled HPLC assay” value (DrGKUP; ATP) was “The recombinant full length DrGKUP as well as the DrGK alone catalyzes the phosphorylation of GlcA”.

B1: DrGK (Danio rerio) (protein)
chain: AHYSSKQQLSPSKPITCRSYARVGLMGNPSDGFNGKTIAMSISNFWAEVTLMESQTLVLLPHPLNDPTEFGGLQDLFRISRKEGYLGGLRLLQATCKKFYQFCSEQGIALSKQNFTLKYDTNIPRQVGLAGSSAIVSATLKCLMKFYNITDNDLPQPVRANFILNVETDELFITAGLQDRVVQVYEGLVYMDFSKQLMDERGYGEYIPLDMRDLPMFWLAYLSDPSDSGRIHSNVRQRWLNGEPAVVEAMKSFAELTDQSRAAFQCKDWARLAQLMDENFELRRSVYTDDCLGPGNLKMVQLARQFGSAVKLPGSGGAVVGLCMDQERLMEMKRAFQEAGCVFCLIVPYDPSVQGQN
notes: C-terminal glucuronokinase (GHMP kinase) domain only, 357 residues, 40 kDa, of the 619-residue DrGKUP (N-terminal ~260-residue pyrophosphorylase domain removed); StrepII-tag; made in Nicotiana benthamiana leaves
With B1 the Km [1] was 59.3 ± 9.1 µM and the kcat [1] was 1.3 s⁻¹.
